Test results reported in USRE47221E1, “Tricyclic compounds” (AbbVie Inc., priority 2009, dated 2019).

Molecular target: T1, Jak3 (Homo sapiens, UniProt P52333)
T1 construct: Jak3 enzyme (aa 811-1103); expressed in SF9 cells as a GST fusion; GST; made in house; host or cells: SF9 insect cells
Assay: Jak3 enzyme data for selected compounds
Format: biochemical

T1 sequence (P52333 811-1103): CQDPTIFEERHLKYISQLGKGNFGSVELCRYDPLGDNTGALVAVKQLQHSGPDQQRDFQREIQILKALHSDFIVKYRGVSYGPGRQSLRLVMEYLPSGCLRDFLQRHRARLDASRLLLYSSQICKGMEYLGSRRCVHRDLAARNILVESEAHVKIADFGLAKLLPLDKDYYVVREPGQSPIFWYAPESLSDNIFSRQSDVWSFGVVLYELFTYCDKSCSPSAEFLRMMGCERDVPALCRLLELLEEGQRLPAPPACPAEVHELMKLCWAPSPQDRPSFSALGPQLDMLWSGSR

Compound | IC50 [nM]
CC[C@@H]1C[C@H](OCc2ccc(OC)cc2)C[C@H]1c1nnc2cnc3[nH]ccc3n12 (racemic) [D.1.38] | 100 to 1000
C[C@H]1CCN(S(=O)(=O)CCC(F)(F)F)C[C@@H]1Nc1ncc2cnc3[nH]ccc3n12 (racemic) [D.1.66] | > 1000
O=S(=O)(CCC(F)(F)F)N1CCC[C@H]2[C@H]1CCN2c1ncc2cnc3[nH]ccc3n12 (racemic) [D.1.69] | > 1000
CC[C@@H]1C[C@@H](Oc2ccc(C#N)cn2)C[C@H]1c1nnc2cnc3[nH]ccc3n12 (racemic) [D.2.10] | > 1000
CC[C@@H]1C[C@@H](Oc2ccc(C#N)cn2)C[C@@H]1c1nnc2cnc3[nH]ccc3n12 (racemic) [D.2.22] | 100 to 1000
C[C@@H]1CCN(c2cnc(C#N)cn2)C[C@@H]1c1ncc2cnc3[nH]ccc3n12 (racemic) [L.1.2] | < 100
C[C@@H]1CCN(c2ncc(C#N)s2)C[C@@H]1c1ncc2cnc3[nH]ccc3n12 (racemic) [L.1.4] | < 100
CC[C@@H]1C[C@H](Oc2cnc(C#N)cn2)C[C@@H]1c1nnc2cnc3[nH]ccc3n12 (relative stereo) [AA.1.37, 5-(3-ethyl-4-(6H-pyrrolo[2,3-e][1,2,4]triazolo[4,3-a]pyrazin-1-yl)cyclopentyloxy)pyrazine-2-carbonitrile] | 100 to 1000
CC[C@@H]1C[C@@H](OCCC(F)(F)F)C[C@@H]1c1nnc2cnc3[nH]ccc3n12 (relative stereo) [AA.1.107, 1-(2-ethyl-4-(3,3,3-trifluoropropoxy)cyclopentyl)-6H-pyrrolo[2,3-e][1,2,4]triazolo[4,3-a]pyrazine] | < 100
O=C(N1CCC[C@@H](c2cnc3cnc4[nH]ccc4n23)C1)N1CC(F)(F)C1 (single isomer, unassigned) [AA.1.6, (3-(3H-imidazo[1,2-a]pyrrolo[2,3-e]pyrazin-8-yl)piperidin-1-yl)(3,3-difluoroazetidin-1-yl)methanone] | < 100
O=C(N1CCC[C@@H](c2cnc3cnc4[nH]ccc4n23)C1)N1CCC(F)(F)C1 (single isomer, unassigned) [AA.1.8, (3-(3H-imidazo[1,2-a]pyrrolo[2,3-e]pyrazin-8-yl)piperidin-1-yl)(3,3-difluoropyrrolidin-1-yl)methanone] | < 100
O=C(N1CCC(F)(F)CC1)N1CCC[C@@H](c2cnc3cnc4[nH]ccc4n23)C1 (single isomer, unassigned) [AA.1.9, (3-(3H-imidazo[1,2-a]pyrrolo[2,3-e]pyrazin-8-yl)piperidin-1-yl)(4,4-difluoropiperidin-1-yl)methanone] | 100 to 1000
C[C@@H]1CCN(c2ncc(C#N)s2)C[C@@H]1c1ncc2cnc3[nH]ccc3n12 (single isomer, unassigned) [AA.1.11, 2-(-3-(6H-imidazo[1,5-a]pyrrolo[2,3-e]pyrazin-1-yl)-4-methylpiperidin-1-yl)thiazole-5-carbonitrile] | < 100
C[C@@H]1C[C@H](Nc2cnc(C#N)cn2)C[C@@H]1c1cnc2cnc3[nH]ccc3n12 (single isomer, unassigned) [AA.1.16, 5-(3-(3H-imidazo[1,2-a]pyrrolo[2,3,-e]pyrazin-8-yl)-4-methylcyclopentylamino)pyrazine-2-carbonitrile] | 100 to 1000
C[C@@H]1C[C@H](Nc2cnc(C#N)cn2)C[C@H]1c1cnc2cnc3[nH]ccc3n12 (single isomer, unassigned) [AA.1.18, 5-(3-(3H-imidazo[1,2-a]pyrrolo[2,3,-e]pyrazin-8-yl)-4-methylcyclopentylamino)pyrazine-2-carbonitrile] | < 100
N#Cc1cnc(N2CCC[C@@H](c3cnc4cnc5[nH]ccc5n34)C2)s1 (single isomer, unassigned) [AA.1.22, 2-(3-(3H-imidazo[1,2-a]pyrrolo[2,3,-e]pyrazin-8-yl)piperidin-1-yl)thiazole-5-carbonitrile] | < 100
CC[C@@H]1C[C@@H](Oc2ccc(C#N)cn2)C[C@@H]1c1nnc2cnc3[nH]ccc3n12 (single isomer, unassigned) [AA.1.29, 6-(3-ethyl-4-(6H-pyrrolo[2,3-e][1,2,4]triazolo[4,3-a]pyrazin-1-yl)cyclopentyloxy)-nicotinonitrile] | > 1000
CC[C@@H]1C[C@H](OCc2ccc(OC)cc2)C[C@H]1c1nnc2cnc3[nH]ccc3n12 (single isomer, unassigned) [AA.1.32, 1-(2-ethyl-4-(4-methoxybenzyloxy)cyclopentyl)-6H-pyrrolo[2,3-e][1,2,4]triazolo [4,3-a]pyrazine] | 100 to 1000
CC[C@@H]1C[C@@H](Oc2cnc(C#N)cn2)C[C@@H]1c1nnc2cnc3[nH]ccc3n12 (single isomer, unassigned) [AA.1.33, 5-(3-ethyl-4-(6H-pyrrolo[2,3-e][1,2,4]triazolo[4,3-a]pyrazin-1-yl)cyclopentyloxy)pyrazine-2-carbonitrile] | 100 to 1000
CC[C@H]1C[C@@H](COc2cnc(C#N)cn2)C[C@H]1c1nnc2cnc3[nH]ccc3n12 (single isomer, unassigned) [AA.1.42, 5-((cis-3-ethyl-4-(6H-pyrrolo[2,3-e][1,2,4]triazolo[4,3-a]pyrazin-1-yl)cyclopentyl)methoxy)-pyrazine-2-carbonitrile] | > 1000
CC[C@@H]1CCN(C(=O)CC#N)C[C@@H]1c1ncc2cnc3[nH]ccc3n12 (single isomer, unassigned) [AA.1.54, 3-(cis-4-ethyl-3-(6H-imidazo[1,5-a]pyrrolo[2,3-e]pyrazin-1-yl)piperidin-1-yl)-3-oxopropanenitrile] | 100 to 1000
CC[C@@H]1C[C@H](OCC2CCOCC2)C[C@H]1c1nnc2cnc3[nH]ccc3n12 (single isomer, unassigned) [AA.1.66, 1-(2-ethyl-4-((tetrahydro-2H-pyran-4-yl)methoxy)cyclopentyl)-6H-pyrrolo[2,3-e][1,2,4]triazolo[4,3-a]pyrazine] | > 1000
CC[C@@H]1C[C@H](OCC2CCOCC2)C[C@@H]1c1nnc2cnc3[nH]ccc3n12 (single isomer, unassigned) [AA.1.67, 1-(2-ethyl-4-((tetrahydro-2H-pyran-4-yl)methoxy)cyclopentyl)-6H-pyrrolo[2,3-e][1,2,4]triazolo[4,3-a]pyrazine] | > 1000
CC[C@H]1C[C@@H](NS(=O)(=O)CCC(F)(F)F)C[C@H]1c1cnc2cnc3[nH]ccc3n12 (single isomer, unassigned) [AA.1.76, N-(3-ethyl-4-(3H-imidazo[1,2-a]pyrrolo[2,3-e]pyrazin-8-yl)cyclopentyl)-3,3,3-trifluoropropane-1-sulfonamide] | > 1000
CC[C@@H]1C[C@H](NS(=O)(=O)CCC(F)(F)F)C[C@@H]1c1cnc2cnc3[nH]ccc3n12 (single isomer, unassigned) [AA.1.77, N-(3-ethyl-4-(3H-imidazo[1,2-a]pyrrolo[2,3-e]pyrazin-8-yl)cyclopentyl)-3,3,3-trifluoropropane-1-sulfonamide] | < 100

Second part, the compound after the results:

IC50 [nM] | Compound
< 100 | C[C@@H]1CCN(C(=O)C2CCS(=O)(=O)C2)C[C@@H]1c1ncc2cnc3[nH]ccc3n12 (mixture of isomers) [H.1.29]
100 to 1000 | C[C@@H]1CCN(C(=O)C2(C#N)CC2)C[C@@H]1c1ncc2cnc3[nH]ccc3n12 (racemic) [H.3.14]
< 100 | C[C@@H]1CCN(C(=O)N2CCCC2)C[C@@H]1c1ncc2cnc3[nH]ccc3n12 (racemic) [I.2.1]
< 100 | C[C@H]1CCN(C(=O)N(C)C)C[C@H]1c1ncc2cnc3[nH]ccc3n12 (racemic) [I.2.2]
< 100 | C[C@H]1CCN(C(=O)N2CC(C#N)C2)C[C@H]1c1ncc2cnc3[nH]ccc3n12 (racemic) [J.1.1]
< 100 | C[C@@H]1CCN(C(=O)N2CC[C@H](C#N)C2)C[C@@H]1c1ncc2cnc3[nH]ccc3n12 (racemic) [J.2.1]
< 100 | C[C@H]1CCN(C(=O)N2CC[C@@H](C)[C@@H](c3ncc4cnc5[nH]ccc5n34)C2)C1 (racemic) [J.2.10]
100 to 1000 | N#Cc1ccc(N[C@@H]2CC[C@@H](c3ncc4cnc5[nH]ccc5n34)C2)cc1 (single isomer, unassigned) [AA.1.3]
100 to 1000 | CC[C@H]1C[C@H](NS(=O)(=O)C2CC2)C[C@@H]1c1nnc2cnc3[nH]ccc3n12 (single isomer, unassigned) [AA.1.5]
< 100 | CC[C@H]1C[C@@H](NS(=O)(=O)C2CC2)C[C@H]1c1cnc2cnc3[nH]ccc3n12 (single isomer, unassigned) [AA.1.25, N-(3-ethyl-4-(3H-imidazo[1,2-a]pyrrolo[2,3-e]pyrazin-8-yl)cyclopentyl)cyclopropanesulfonamide]
< 100 | CC[C@@H]1C[C@H](NS(=O)(=O)C2CC2)C[C@]1(F)c1nnc2cnc3[nH]ccc3n12 (single isomer, unassigned) [AA.1.43, N-(cis-4-ethyl-3-fluoro-3-(6H-pyrrolo[2,3-e][1,2,4]triazolo[4,3-a]pyrazin-1-yl)cyclopentyl)cyclo-propanesulfonamide]
100 to 1000 | CC[C@H]1C[C@@H](NS(=O)(=O)C2CC2)C[C@]1(F)c1nnc2cnc3[nH]ccc3n12 (single isomer, unassigned) [AA.1.44, N-(cis-4-ethyl-3-fluoro-3-(6H-pyrrolo[2,3-e][1,2,4]triazolo[4,3-a]pyrazin-1-yl)cyclopentyl)cyclo-propanesulfonamide]
100 to 1000 | O=S(=O)(NC[C@H]1CC[C@H](c2ncc3cnc4[nH]ccc4n23)C1)C1CC1 (single isomer, unassigned) [AA.1.60]
100 to 1000 | O=S(=O)(NC[C@H]1CC[C@@H](c2ncc3cnc4[nH]ccc4n23)C1)C1CC1 (single isomer, unassigned) [AA.1.61]
100 to 1000 | O=S(=O)(CCC(F)(F)F)NC[C@H]1CC[C@@H](c2ncc3cnc4[nH]ccc4n23)C1 (single isomer, unassigned) [AA.1.62]
> 1000 | O=S(=O)(CCC(F)(F)F)NC[C@H]1CC[C@H](c2ncc3cnc4[nH]ccc4n23)C1 (single isomer, unassigned) [AA.1.63]
> 1000 | CCC1CC(CNS(=O)(=O)C2CC2)CC1c1nnc2cnc3[nH]ccc3n12 (single isomer, unassigned) [AA.1.64, N-((3-ethyl-4-(6H-pyrrolo[2,3-e][1,2,4]triazolo[4,3-a]pyrazin-1-yl)cyclopentyl)methyl)cyclopropane sulfonamide]
